Assay results: PMC2898662, “Midkine inhibitors: application of a simple assay procedure to screening of inhibitory compounds” (International Archives of Medicine, 2010)
Ends that are not written are not given here. Peptide text beside a SMILES is read from it.

Tests used:
[1] = tested on: UMR106 cells; test: Toxicity to UMR106 target cells in culture
Text: These 10 compounds were surveyed for the activity to inhibit midkine activity.

[2] = molecular target: T1, midkine (Homo sapiens, UniProt P21741); test: Midkine activity: midkine-dependent migration of UMR106 cells (Chemotaxicell); format: cell-based; details: filter coated with 20 μg/ml midkine, 4 h, OD 590 nm
T1 construct: made in house; host or cells: yeast
T1 sequence (P21741 23-143 limits assumed): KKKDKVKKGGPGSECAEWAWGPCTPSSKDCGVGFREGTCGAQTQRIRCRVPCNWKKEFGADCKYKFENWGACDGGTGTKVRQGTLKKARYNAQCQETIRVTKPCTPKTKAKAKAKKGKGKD
Protocol: Midkine activity was determined by promotion of migration of UMR106 (ATTC No. 1661) cells. Chemotaxicell (pore size 8 micron, Kurabo Industries Ltd., Japan) was coated with 20 μg/ml of midkine at the lower surface of the filter for 1 h, and washed with Dulbecco's phosphate-buffered saline (PBS) twice. UMR106 cells (2 × 10^5 cells in 0.2 ml of Dulbecco's modified Eagle's medium with 0.3% bovine serum albumin) were added to the upper chamber. The lower chamber contained 0.5 ml of the same medium. Cells were cultured for 4 h. The inner Chemotaxicell was cleaned with PBS, and cells were fixed with 100% methanol at room temperature for 20 min. The inner cell was cleaned with cotton bar, and the migrated cells were stained with 1% crystal violet at room temperature for 30 min., and were washed with H2O. The cells were extracted with 0.2 ml of 1% SDS with 1% Triton X-100 for 1 h upon agitation. Then extract of 0.15 ml was transferred to a 96 well plate and OD 590 nm was determined. Upon inhibition assay using low molecular weight compounds, they were dissolved in ethanol and were added to the lower chamber so that the final ethanol concentration was 2%. The control contained also 2% ethanol in this occasion. Inhibition assay using peptides was performed by adding them dissolved in H2O. Assay was done in duplicate.

[3] = molecular target: T1, midkine; test: Binding activity to midkine by surface plasmon assay (BIACORE 3000); details: BIACORE 3000, midkine immobilised on CM5 chip; peptides 5 μg/ml in 10 mM HEPES-NaOH pH 7.4, 0.15 M NaCl, 0.0005% Tween 20; 25°C; read-out: Binding constant to midkine
Protocol: Binding activity to midkine was evaluated in the BIACORE 3000 System (GE Healthcare, UK Ltd). A CM5 sensor chip coated with carboxymethyldextran was activated by injecting a solution (1:1) of 200 mM N-ethyl-N'-(3-dimethylaminopropyl) carbodiimide hydrochloride and 100 mM N-hydroxysuccinimide at a flow rate of 10 μl/min. A 70 μl aliquot of midkine solution (50 μg/ml in 10 mM acetate buffer, pH 5.0) was injected for immobilization. The remaining activated N-hydroxysuccinimide ester groups were blocked by injecting 1 M ethanolamine hydrochloride/NaOH, pH 8.5, and washed with 10 μl of 1 M NaCl. Peptides (5 μg/ml) in the running buffer (10 mM HEPES-NaOH, pH 7.4, containing 0.15 M NaCl and 0.0005% Tween 20) were injected into the flow cell, and the change in resonance units was recorded. Binding assays were performed at 25°C with a constant flow rate of […] in both association and dissociation phases.

[4] = peptide added to culture of UMR106 cells at 1 mg/ml
[5] = peptide 1 mg/ml in lower chamber, dissolved in H2O, control without material = 100, duplicate

Compound	Kd [3] [nM]	Migration activity (%) [2, 5] [%]	other results
CC1CCCC(C)N1c1nc(-c2cccs2)cc(C(F)(F)F)n1 (stereo not shown) [Compound I, 2-(2,6-dimethylpiperidin-1-yl)-4-thiophen-2-yl-6-(trifluoromethy)pyrimidine]			Toxicity to the target cells ([1]; at the concentration used for the migration assay (Compound I 0.146 mg/ml, Compound II 0.10 mg/ml)): no toxicity; Migration activity (%) ([2]; compound 0.146 mg/ml in lower chamber, 2% ethanol, control = 100, duplicate): 43.8 ± 10.2%
CC[C@H](C)[C@H](NC(=O)[C@H](CS)NC(=O)[C@H](CCC(=O)O)NC(=O)CNC(=O)[C@H](CS)NC(=O)[C@H](CO)NC(=O)[C@H](CCCCN)NC(=O)[C@H](C)NC(=O)[C@H](CC(N)=O)NC(=O)[C@H](C)NC(=O)[C@@H](N)CCCCN)C(=O)O [KA11] (H-KANAKSCGECI-OH)	270	43.7 ± 12.8	Toxicity to UMR106 cells [1, 4]: no toxicity was observed
AMETNLV [AM7]	950	99.5 ± 6.9	
GTGTKVRQGTL [GT11, midkine-derived peptide … from β-sheet of C-terminal half]		156 ± 6	
IENPRGSKDIKKNKN [IE15]	300	113 ± 10.1	
KQNQVKFGS [KQ9]	200	107 ± 15	
MQSTIRE [MQ7]	230	107 ± 2	

Further lines, with some results ahead:

Kd [3] [nM]	Migration activity (%) [2, 5] [%]	Compound	other results
450	69.4 ± 46.1	PAKLRNPCT [PA9]	
	99.5 ± 10.6	QETIRVTKPC [QE10, midkine-derived peptide … from β-sheet of C-terminal half]	
140	105 ± 24	TFSQRIEG [TF8]	
	44.0 ± 10.5	YKFENWGACDGG [YK12, midkine-derived peptide … from β-sheet of C-terminal half]	Inhibition of cell-substratum adhesion of UMR106 cells [1, 4]: inhibition of cell-substratum adhesion was observed in a certain occasion; Toxicity to UMR106 cells [1, 4]: no toxicity was observed
